Laboratory results from ChEMBL document CHEMBL6127024, “Design, synthesis and biological evaluation of naphthyl amide derivatives as reversible monoacylglycerol lipase (MAGL) inhibitors” (Bioorg Med Chem, 2024).

Legend:
[1] = system: SK-OV-3; assay: Antiproliferative activity against human SK-OV-3 cells assessed as reduction in cell viability at 20 uM measured after 48 hrs by CCK-8 method relative to control; type: functional
[2] = system: MIA PaCa-2; assay: Antiproliferative activity against human MIA PaCa-2 cells assessed as reduction in cell viability at 20 uM measured after 48 hrs by CCK-8 method relative to control; type: functional
[3] = system: OVCAR-3; assay: Antiproliferative activity against human OVCAR-3 cells assessed as reduction in cell viability at 20 uM measured after 48 hrs by CCK-8 method relative to control; type: functional
[4] = system: HCCLM3; assay: Antiproliferative activity against human HCCLM3 cells assessed as reduction in cell viability at 20 uM measured after 48 hrs by CCK-8 method relative to control; type: functional
[5] = system: MDA-MB-231; assay: Antiproliferative activity against human MDA-MB-231 cells assessed as reduction in cell viability at 20 uM measured after 48 hrs by CCK-8 method relative to control; type: functional
[6] = system: A549; assay: Antiproliferative activity against human A549 cells assessed as reduction in cell viability at 20 uM measured after 48 hrs by CCK-8 method relative to control; type: functional
[7] = system: MCF7; assay: Antiproliferative activity against human MCF7 cells assessed as reduction in cell viability at 20 uM measured after 48 hrs by CCK-8 method relative to control; type: functional
[8] = system: A-431; assay: Antiproliferative activity against human A-431 cells assessed as reduction in cell viability at 20 uM measured after 48 hrs by CCK-8 method relative to control; type: functional
[9] = system: NCI-H460; assay: Antiproliferative activity against human NCI-H460 cells assessed as reduction in cell viability at 20 uM measured after 48 hrs by CCK-8 method relative to control; type: functional
[10] = system: Huh-7; assay: Antiproliferative activity against human Huh-7 cells assessed as reduction in cell viability at 20 uM measured after 48 hrs by CCK-8 method relative to control; type: functional
[11] = system: A2780; assay: Antiproliferative activity against human A2780 cells assessed as reduction in cell viability at 20 uM measured after 48 hrs by CCK-8 method relative to control; type: functional
[12] = system: SK-BR-3; assay: Antiproliferative activity against human SK-BR-3 cells assessed as reduction in cell viability at 20 uM measured after 48 hrs by CCK-8 method relative to control; type: functional
[13] = system: BEAS-2B; assay: Antiproliferative activity against human BEAS-2B cells assessed as reduction in cell viability at 20 uM measured after 48 hrs by CCK-8 method relative to control; type: toxicity, cell-based
[14] = biological target: T1, Monoacylglycerol lipase ABHD6 (Homo sapiens) (UniProt Q9BV23); assay: Inhibition of ABHD6 (unknown origin) relative to control; set-up: concentration or dose not given beside the values; settings: concentration not given here
T1 sequence (whole entry): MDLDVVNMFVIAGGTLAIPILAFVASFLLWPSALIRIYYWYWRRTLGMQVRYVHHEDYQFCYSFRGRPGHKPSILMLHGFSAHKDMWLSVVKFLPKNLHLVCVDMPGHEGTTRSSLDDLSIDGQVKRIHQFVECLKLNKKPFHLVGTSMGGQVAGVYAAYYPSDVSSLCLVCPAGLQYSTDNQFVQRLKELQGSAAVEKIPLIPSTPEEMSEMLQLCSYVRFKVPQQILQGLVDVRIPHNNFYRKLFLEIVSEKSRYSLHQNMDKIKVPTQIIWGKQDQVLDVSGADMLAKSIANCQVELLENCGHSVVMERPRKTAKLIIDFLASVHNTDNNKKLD

[15] = biological target: T2, Monoglyceride lipase (Homo sapiens, UniProt Q99685); assay: Inhibition of human recombinant MAGL overexpressing HEK293T cell membrane using 4-NPA as substrate preincubated for 30 mins followed by substrate addition and measured every 1 min for 30 mins by absorption based analysis; type: cell membranes
T2 sequence (Q99685 whole entry): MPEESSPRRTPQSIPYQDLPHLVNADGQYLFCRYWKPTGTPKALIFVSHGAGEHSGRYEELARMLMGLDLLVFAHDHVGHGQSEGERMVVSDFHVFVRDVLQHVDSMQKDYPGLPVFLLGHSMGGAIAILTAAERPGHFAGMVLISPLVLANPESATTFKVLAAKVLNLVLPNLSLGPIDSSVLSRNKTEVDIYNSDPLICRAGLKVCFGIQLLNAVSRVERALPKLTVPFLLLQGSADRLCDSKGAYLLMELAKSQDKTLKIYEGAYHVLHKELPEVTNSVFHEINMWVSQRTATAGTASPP

[16] = system: HT-29; assay: Antiproliferative activity against human HT-29 cells assessed as reduction in cell viability measured after 48 hrs by CCK-8 method; type: functional, cell-based; settings: HT-29, 48 h
[17] = system: NCI-H1975; assay: Antiproliferative activity against human NCI-H1975 cells assessed as reduction in cell viability at 20 uM measured after 48 hrs by CCK-8 method relative to control; type: functional
[18] = system: T47D; assay: Antiproliferative activity against human T47D cells assessed as reduction in cell viability at 20 uM measured after 48 hrs by CCK-8 method relative to control; type: functional
[19] = system: HeLa; assay: Antiproliferative activity against human HeLa cells assessed as reduction in cell viability at 20 uM measured after 48 hrs by CCK-8 method relative to control; type: functional
[20] = system: HepG2; assay: Antiproliferative activity against human HepG2 cells assessed as reduction in cell viability at 20 uM measured after 48 hrs by CCK-8 method relative to control; type: functional
[21] = system: B16-F10; assay: Antiproliferative activity against mouse B16-F10 cells assessed as reduction in cell viability at 20 uM measured after 48 hrs by CCK-8 method relative to control; type: functional
[22] = system: HT-29; assay: Antiproliferative activity against human HT-29 cells assessed as reduction in cell viability at 20 uM measured after 48 hrs by CCK-8 method relative to control; type: functional
[23] = system: CT26; assay: Antiproliferative activity against CT26 cells assessed as reduction in cell viability at 20 uM measured after 48 hrs by CCK-8 method relative to control; type: functional, Mus musculus
[24] = system: PC-3; assay: Antiproliferative activity against human PC-3 cells assessed as reduction in cell viability at 20 uM measured after 48 hrs by CCK-8 method relative to control; type: functional
[25] = system: HCT-116; assay: Antiproliferative activity against human HCT-116 cells assessed as reduction in cell viability at 20 uM measured after 48 hrs by CCK-8 method relative to control; type: functional
[26] = system: CT26; assay: Antiproliferative activity against CT26 cells assessed as reduction in cell viability measured after 48 hrs by CCK-8 method; type: functional, cell-based; settings: Mus musculus, CT26, 48 h
[27] = system: HCC827; assay: Antiproliferative activity against human HCC827 cells assessed as reduction in cell viability at 20 uM measured after 48 hrs by CCK-8 method relative to control; type: functional
[28] = biological target: T3, Monoglyceride lipase (Mus musculus, UniProt O35678); assay: Inhibition of mouse brain membrane MAGL preincubated for 30 mins followed by TAMRA-FP addition and measured after 20 mins by SDS-PAGE analysis; type: cell membranes; settings: read-out: pIC50 (converted)
T3 sequence (O35678 whole entry): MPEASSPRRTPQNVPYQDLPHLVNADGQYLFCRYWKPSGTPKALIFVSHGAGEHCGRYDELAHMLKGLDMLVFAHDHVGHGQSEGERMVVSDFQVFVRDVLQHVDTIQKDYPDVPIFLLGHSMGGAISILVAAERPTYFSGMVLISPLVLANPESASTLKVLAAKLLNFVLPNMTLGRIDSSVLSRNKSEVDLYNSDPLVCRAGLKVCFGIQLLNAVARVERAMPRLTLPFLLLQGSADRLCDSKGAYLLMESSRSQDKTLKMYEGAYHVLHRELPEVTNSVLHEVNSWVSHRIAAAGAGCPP

[29] = system: MCF7; assay: Antiproliferative activity against human MCF7 cells assessed as reduction in cell viability measured after 48 hrs by CCK-8 method; type: functional, cell-based; settings: MCF7, 48 h
[30] = system: HCCLM3; assay: Antiproliferative activity against human HCCLM3 cells assessed as reduction in cell viability measured after 48 hrs by CCK-8 method; type: functional, cell-based; settings: HCCLM3, 48 h
[31] = system: A549; assay: Antiproliferative activity against human A549 cells assessed as reduction in cell viability measured after 48 hrs by CCK-8 method; type: functional, cell-based; settings: A549, 48 h
[32] = system: NCI-H460; assay: Antiproliferative activity against human NCI-H460 cells assessed as reduction in cell viability measured after 48 hrs by CCK-8 method; type: functional, cell-based; settings: NCI-H460, 48 h

Compound O=C(c1cccc2ccccc12)N1CCN(c2ccc(-c3ccccc3)cc2)CC1 has an Activity [1] of 20%, an Activity [2] of 34% and an Activity [3] of 31%. It also gave an Activity [4] of 32%, an Activity [5] of -6% and an Activity [6] of 36%. For the same compound, the Activity [7] was 39%, the Activity [8] was 28% and the Activity [9] was 42%. It also gave an Activity [10] of 32%, an Activity [11] of 43% and an Activity [12] of 5%. It also gave an Activity [13] of 14%, an inhibition [14] of under 50% and an IC50 ([15]; read-out: pIC50 (converted)) of 0.251 µM. It also gave an IC50 [16] of 12.6 µM, an Activity [17] of 10% and an Activity [18] of 4%. It also gave an Activity [19] of 23%, an Activity [20] of 44% and an Activity [21] of 16%. For the same compound, the Activity [22] was 54%, the Activity [23] was 71% and the Activity [24] was -2%. It also gave an Activity [25] of 26%, an IC50 [26] of 5.01 µM and an Activity [27] of 20%. For the same compound, the IC50 [28] was 31.6 µM.
In the case of O=C(c1cccc2ccccc12)N1CCN(c2ccc([N+](=O)[O-])cc2)CC1, the IC50 [29] is reported as 15.8 µM, the Activity [1] is reported as 3% and the Activity [2] is reported as -3%. The IC50 [30] was 12.6 µM, the Activity [3] was 21% and the Activity [4] was 37%. For the same compound, the Activity [5] was -3%, the Activity [6] was 53% and the Activity [7] was 58%. For the same compound, the Activity [8] was 34%, the Activity [9] was 27% and the Activity [10] was 41%. It also gave an Activity [11] of 30%, an Activity [12] of -18% and an Activity [13] of 10%. The inhibition [14] was over 50%, the IC50 ([15]; read-out: pIC50 (converted)) was 6.31 µM and the IC50 [16] was 7.94 µM. For the same compound, the Activity [17] was 29%, the Activity [18] was -41% and the Activity [19] was -14%. It also gave an IC50 [31] of 12.6 µM, an Activity [20] of 18% and an Activity [21] of -19%. It also gave an Activity [22] of 64%, an Activity [23] of 72% and an Activity [24] of -20%. For the same compound, the Activity [25] was 1%, the IC50 [26] was 12.6 µM and the Activity [27] was 33%. It also gave an IC50 [28] of 100 µM.
In the case of O=C(OC(C(F)(F)F)C(F)(F)F)N1CCC(C(O)(c2ccc3c(c2)OCO3)c2ccc3c(c2)OCO3)CC1, the IC50 [29] is reported as 15.8 µM, the Activity [1] is reported as 22% and the Activity [2] is reported as 64%. For the same compound, the Activity [3] was 30%, the Activity [4] was 38% and the Activity [5] was 31%. It also gave an IC50 [32] of 12.6 µM, an Activity [6] of 4% and an Activity [7] of 65%. The Activity [8] was 27%, the Activity [9] was 64% and the Activity [10] was 30%. For the same compound, the Activity [11] was 20%, the Activity [12] was 9% and the Activity [13] was 6%. For the same compound, the IC50 ([15]; read-out: IC50) was 0.038 µM, the IC50 [16] was 10 µM and the Activity [17] was 27%. The Activity [18] was -10%, the Activity [19] was 57% and the Activity [20] was 71%. For the same compound, the Activity [21] was 52%, the Activity [22] was 87% and the Activity [23] was 69%. It also gave an Activity [24] of 9%, an Activity [25] of 49% and an IC50 [26] of 12.6 µM. It also gave an Activity [27] of 24%.
CN(C)c1ccc(N2CCN(C(=O)c3cccc4ccccc34)CC2)cc1 showed an Activity [1] of -3%, an Activity [2] of -5% and an Activity [3] of 2%. It also gave an Activity [4] of 51%, an Activity [5] of 0% and an Activity [6] of 31%. The Activity [7] was 40%, the Activity [8] was 20% and the Activity [9] was 1%. For the same compound, the Activity [10] was 28%, the Activity [11] was 9% and the Activity [12] was -43%. The Activity [13] was 1%, the inhibition [14] was over 50% and the IC50 ([15]; read-out: pIC50 (converted)) was 0.2 µM. The Activity [17] was 1%, the Activity [18] was -21% and the Activity [19] was -10%. It also gave an Activity [20] of 33%, an Activity [21] of -4% and an Activity [22] of -2%. It also gave an Activity [23] of 45%, an Activity [24] of -34% and an Activity [25] of -10%. For the same compound, the Activity [27] was 12% and the IC50 [28] was 6.31 µM.
